# Like-named read-outs stand apart in the source and are kept apart here.
# How the values were obtained:
# [1] = tested on: cucumber downy mildew fungus (Pseudoperonospora cubensis); assay type: in vivo; settings: for Control value: Table 7, spray liquid 500 ppm, percent lesion area 5 days after inoculation
# [2] = tested on: cucumber (variety: Sagami Hanjiro)
# [3] = tested on: pear alternaria leaf spot fungus (Alternaria kikuchiana); assay type: in vivo; settings: pear black spot; concentration of spray liquid 500 ppm; three days after the inoculation
# [4] = tested on: pear (variety: Niju-seiki); settings: concentration of spray liquid 500 ppm
# [5] = tested on: paddy rice (variety: Asahi)
# [6] = tested on: rice brown spot fungus (Cochliobolus miyabeanus); experiment: Test Example 2: control effect on paddy rice brown spot (spray on potted seedlings); settings: Table 3, spray liquid 500 ppm, inoculation one day after spraying, lesions per leaf 5 days after inoculation
# Pellicularia sasakii = assay type: in vivo; settings: Table 4, spray liquid 500 ppm, paddy rice sheath blight
# paddy rice = settings: Table 4, spray liquid 500 ppm
# [7] = tested on: hariot (variety: Taisho Kintoki)
# [8] = tested on: haricot sclerotinia rot (Sclerotinia sclerotiorum); experiment: Test Example 5: control effect on haricot sclerotinia rot (spray, detached leaflets); settings: Table 6, spray liquid 200 ppm, lesion diameter 3 days after inoculation
# Method: On the following day, the first trifoliate leaf was cut off and the each leaflet of trifoliate leaf were placed in a 15 cm petri dish kept under moist conditions by placing a wet filter paper thereon and were inoculated on the center portion of each leaflet with a fungus-containing agar segment obtained by perforating by means of a cork borer of 8 mm in diameter an edge of a colony of a haricot sclerotinia rot (Sclerotinia sclerotiorum) cultured previously at 20°C. for 2 days in PSA medium. Three days after inoculation, the lesion diameter formed was measured by means of slide calipers and the control value (%) was obtained according to the following equation.
# rice brown spot fungus = experiment: Test Example 10: seed treatment against brown spot of rice (seed disinfection ratio); settings: concentration 1000 ppm, seed immersion, 25 days after the seeding
# [9] = tested on: rice seeds (variety: Asominori); experiment: Test Example 10: degree of phytotoxicity on rice after seed treatment (injury rating); settings: concentration 1000 ppm
# Phytophthora infestans = assay type: in vivo
# [10] = tested on: tomato (variety: Sekai-ichi)
# rice seeds = experiment: Test Example 9: degree of phytotoxicity on rice after seed treatment (injury rating); settings: concentration 1000 ppm
# Gibberella fujikuroi = experiment: Test Example 9: seed treatment against "Bakanae" disease of rice (seed disinfection ratio); settings: concentration 1000 ppm, seed immersion at 15°C. for 24 hours, 32 days after the seeding
# [11] = Table 3, spray liquid 500 ppm, paddy rice
# [12] = Table 6, spray liquid 200 ppm, haricot
smiles,measurement,setting,value
"CCOC(=O)c1sc(C(=O)OCC)c(OC(=O)c2cccs2)c1OC(=O)c1cccs1 [Compound No. 229, 3,4-Di-(2'-thenoyloxy)-2,5-dicarbethoxythiophene]",Control value,[1],100%
same,Degree of phytotoxicity,"[2]; Table 7, spray liquid 500 ppm",0
"CCOC(=O)c1sc(C#N)c(OC(C)=O)c1OC(C)=O [Compound No. 212, 3,4-Di-acetoxy-2-cyano-5-carbethoxythiophene]",Control value (%),[3],100%
same,Degree of phytotoxicity,[4],0
"OCCN1CN(CCO)CN(CCO)C1 [Triazine, reference compound]",Degree of phytotoxicity,[5]; [11],0
same,Control value,[6],90%
"CCOCCC(=O)Oc1c(C(=O)OCC)sc(C(=O)OCC)c1OC(=O)CCOCC [Compound No. 295, 3,4-Di(2'-ethoxyethylcarbonyloxy)-2,5-dicarbethoxy-thiophene]",Control value,Pellicularia sasakii,94%
same,Degree of phytotoxicity,paddy rice,0
"COCCOC(=O)c1sc(C(=O)OCCOC)c(OC(=O)COC)c1OC(=O)COC [Compound No. 170, 3,4-Di-methoxymethylcarbonyloxy-2,5-di-2'-methoxyethoxycarbonylthiophene]",Control value,[1],93%
same,Degree of phytotoxicity,"[2]; Table 7, spray liquid 500 ppm",0
"CCOC(=O)Oc1c(C#N)sc(C(=O)OCC)c1OC(=O)OCC [Compound No. 216, 3,4-Di-(ethoxycarbonyloxy)-2-cyano-5-carbethoxythiophene]",Degree of phytotoxicity,[7]; [12],0
same,Control value,[8],75%
same,Seed disinfection ratio (%),rice brown spot fungus,100%
same,Degree of phytotoxicity,[9],0
"CCOC(=O)c1sc(C(=O)c2ccccc2)c(O)c1O [Compound No. 247, 3,4-Dihydroxy-2-carbethoxy-5-benzoylthiophene]",Degree of phytotoxicity,[7]; [12],0
same,Control value,[8],100%
"COC(=O)c1sc(C(=O)c2ccccc2)c(O)c1O [Compound No. 246, 3,4-Dihydroxy-2-carbomethoxy-5-benzoylthiophene]",Degree of phytotoxicity,[7]; [12],0
same,Control value,[8],100%
"N#Cc1c(Cl)c(Cl)c(Cl)c(C#N)c1Cl [TPN, reference compound]",Control value (%),"[1]; concentration of spray liquid 500 ppm, five days after the inoculation",100%
same,Degree of phytotoxicity,[2]; concentration of spray liquid 500 ppm,0
"CCOC(=O)c1sc(C(=O)c2ccccc2)c(OC(C)=O)c1OC(C)=O [Compound No. 249, 3,4-Diacetoxy-2-carbethoxy-5-benzoylthiophene]",Degree of phytotoxicity,[7]; [12],0
same,Control value,[8],100%
"CCNC(=O)Oc1c(C#N)sc(C(=O)OC)c1OC(=O)NCC [Compound No. 208, 3,4-Di(N-ethylcarbamoyloxy)-2-cyano-5-methoxycarbonylthiophene]",Control value,[1],100%
same,Control value (%),[3],78%
same,Degree of phytotoxicity,"[2]; Table 7, spray liquid 500 ppm",0
same,Degree of phytotoxicity,[4],0
same,Seed disinfection ratio (%),rice brown spot fungus,97%
same,Degree of phytotoxicity,[9],0
"CCOCCOC(=O)c1sc(C(=O)OCCOCC)c(OC(=O)NC)c1OC(=O)NC [Compound No. 161, 3,4-Di-methylcarbamoyloxy-2,5-di-2'-ethoxyethoxycarbonylthiophene]",Degree of phytotoxicity,[5]; in vivo,0
same,Control value,[6],100%
"CCCOC(=O)c1sc(C(=O)OCCC)c(OC(C)=O)c1OC(C)=O [Compound No. 3, 3,4-Diacetoxy-2,5-di-n-propoxycarbonylthiopene]",Control value,Phytophthora infestans; in vivo,93%
same,Degree of phytotoxicity,[5]; in vivo,0
same,Degree of phytotoxicity,[10]; in vivo,0
same,Degree of phytotoxicity,[7]; in vivo,0
same,Control value,[6],100%
same,Control value,[8],100%
same,Seed disinfection ratio (%),rice brown spot fungus,100%
same,Degree of phytotoxicity,rice seeds,0
same,Degree of phytotoxicity,[9],0
same,Seed disinfection ratio (%),Gibberella fujikuroi,100%
CNC(=O)Oc1c(C#N)sc(C(=O)OC)c1OC(=O)NC [compound 207],Control value,[1],100%
same,Control value (%),[3],92%
same,Degree of phytotoxicity,"[2]; Table 7, spray liquid 500 ppm",0
same,Degree of phytotoxicity,[4],0
same,Seed disinfection ratio (%),rice brown spot fungus,96%
same,Degree of phytotoxicity,[9],0
"CN(C)C(=S)SSC(=S)N(C)C [TMTD, reference compound]",Seed disinfection ratio (%),rice brown spot fungus,51%
same,Degree of phytotoxicity,[9],0
"CCOC(=O)c1sc(C(=O)OCC)c(OC(=O)NC)c1OC(=O)NC [Compound No. 50, 3,4-Bis(N-methylcarbamoyloxy)-2,5-dicarbethoxy-thiophene]",Control value,[1],100%
same,Degree of phytotoxicity,[5]; [11],0
same,Degree of phytotoxicity,"[2]; Table 7, spray liquid 500 ppm",0
same,Control value,[6],100%
same,Seed disinfection ratio (%),rice brown spot fungus,100%
same,Degree of phytotoxicity,rice seeds,0
same,Degree of phytotoxicity,[9],0
same,Seed disinfection ratio (%),Gibberella fujikuroi,100%
"CCOC(=O)c1sc(C(=O)OCC)c(OC(=O)OC)c1OC(=O)OC [Compound No. 22, 3,4-Dimethoxycarbonyloxy-2,5-dicarbethoxythiophene]",Control value,"Phytophthora infestans; Table 5, spray liquid 500 ppm, tomato late blight, inoculation 3 days after spraying, observed 3 days after inoculation",100%
same,Control value,[1],100%
same,Degree of phytotoxicity,[5]; [11],0
same,Degree of phytotoxicity,"[10]; Table 5, spray liquid 500 ppm, tomato",0
same,Degree of phytotoxicity,[7]; [12],0
same,Degree of phytotoxicity,"[2]; Table 7, spray liquid 500 ppm",0
same,Control value,[6],100%
same,Control value,[8],95%
same,Seed disinfection ratio (%),rice brown spot fungus,100%
same,Degree of phytotoxicity,rice seeds,0
same,Degree of phytotoxicity,[9],0
same,Seed disinfection ratio (%),Gibberella fujikuroi,97%
"COC(=O)Oc1c(C(=O)OCc2ccccc2)sc(C(=O)OCc2ccccc2)c1OC(=O)OC [Compound No. 179, 3,4-Di-methoxycarbonyloxy-2,5-dibenzyloxycarbonylthiophene]",Control value,[1],100%
same,Degree of phytotoxicity,"[2]; Table 7, spray liquid 500 ppm",0
"CCOC(=O)c1sc(C(=O)c2ccc(C)cc2)c(OC(=O)N(C)C)c1OC(=O)N(C)C [Compound No. 287, 3,4-Di(N,N-dimethylcarbamoyloxy)-2-carbethoxy-5-(p-methylbenzoyl)-thiophene]",Degree of phytotoxicity,[7]; [12],0
same,Control value,[8],90%
"CCOC(=O)c1sc(C#N)c(O)c1O [Compound No. 210, 3,4-Dihydroxy-2-cyano-5-carbethoxythiophene]",Control value (%),[3],100%
same,Degree of phytotoxicity,[4],0
"CCOCCOC(=O)c1sc(C(=O)OCCOCC)c(O)c1O [Compound No. 159, 3,4-Dihydroxy-2,5-di-2'-ethoxyethoxycarbonyl-thiophene]",Control value,Phytophthora infestans; in vivo,99%
same,Degree of phytotoxicity,[5]; in vivo,0
same,Degree of phytotoxicity,[10]; in vivo,0
same,Control value,[6],96%
"CCOC(=O)c1sc(C(=O)c2ccccc2)c(OC(=O)OC)c1OC(=O)OC [Compound No. 252, 3,4-Di(methoxycarbonyloxy)-2-carbethoxy-5-benzoylthiophene]",Degree of phytotoxicity,[7]; [12],0
same,Control value,[8],90%
CCOC(=O)c1sc(C#N)c(OC(=O)NC)c1OC(=O)NC [compound 213],Control value,[1],100%
same,Control value (%),[3],92%
same,Degree of phytotoxicity,"[2]; Table 7, spray liquid 500 ppm",0
same,Degree of phytotoxicity,[4],0
same,Seed disinfection ratio (%),rice brown spot fungus,94%
same,Degree of phytotoxicity,[9],0
"COC(=O)NC(=S)Nc1ccccc1NC(=S)NC(=O)OC [Thiophanate-methyl, reference compound]",Control value,[8],70%
"O=C1C2CC=CCC2C(=O)N1SC(Cl)(Cl)Cl (stereo not shown) [Captan, reference compound]",Control value (%),[3],90%
same,Degree of phytotoxicity,[4],0
CCOC(=O)c1sc(C#N)c(O)c1O [compound 211],Control value,[1],100%
same,Degree of phytotoxicity,"[2]; Table 7, spray liquid 500 ppm",0
